Measured values: patent publication US11472805B2, “Tricyclic compounds and their use as phosphodiesterase inhibitors” (Pfizer Inc., priority 2015, dated 2022)
Where a name gives a salt, the structure may show the parent alone. Read-outs that look alike come from different tables or passages of the source.

Tests used:
Assay type in all cases: biochemical
human PDE4D3 = human PDE4D3 (Homo sapiens (Human), UniProt Q08499); assay: PDE4D3 Scintillation Proximity Assay (SPA), inhibition of enzyme activity; conditions: read-out: Human PDE4D FL
Experimental: (§1) The PDE4A, PDE4B, PDE4C and PDE4D binding affinity for the compounds of the present invention was determined utilizing the following biological assay(s):
A portion of the human PDE4D3 coding sequence (amino acids 50 to 672 from the sequence with accession number Q08499-2) was cloned into the baculovirus expression vector pFastBac (Invitrogen) engineered to include a C-terminal His6 affinity tag to aid in purification as described in Seeger, T. F. et al., Brain Research 985 (2003) 113-126. The recombinant Bacmid was isolated and used to transfect insect cells to generate a viral stock. To generate cell paste for purification, insect cells were infected and cells were harvested 72 hours after infection. Insect cell paste was lysed and after centrifugation, the supernatant was chromatographed on Ni-NTA agarose (Qiagen) as described in Seeger, T. F. et al., Brain Research 985 (2003) 113-126. Ni-NTA agarose eluting fractions containing PDE4 were pooled, diluted with Q Buffer A (50 mM Tris HCl pH 8, 4% glycerol, 100 mM NaCl, 1 mM TCEP, Protease inhibitors EDTA-free (Roche)) to reduce NaCl to ˜200 mM, and loaded on a Q Sepharose (GE Healthcare) column. After washing with Q buffer A to baseline, PDE4D was eluted with a gradient from 10% to 60% of Buffer B (50 mM Tris HCl pH 8, 1 M NaCl, 4% glycerol, 1 mM TCEP). PDE4D fractions were analyzed by SDS-PAGE Coomassie blue staining, pooled based on purity, frozen and stored at −80° C.
(§2) The PDE4A3, PDE4B1, PDE4C1 and PDE4D3 assays use the Scintillation Proximity Assay (SPA) technology to measure the inhibition of human recombinant PDE4A1, PDE4B3, PDE4C1, and PDE4D3 enzyme activity by compounds in vitro. The PDE4A1, PDE4B3, PDE4C1, and PDE4D3 assays are run in parallel using identical parameters, except for the concentration of enzyme ([…]). The assays are performed in a 384-well format with 50 uL assay buffer (50 mM TRIS pH7.5; 1.3 mM MgCl2; 0.01% Brij) containing enough PDE4A3, PDE4B1, PDE4C1, and PDE4D to convert ˜20% of substrate (1 μM cAMP consisting of 20 nM 3H-cAMP+[…] cold cAMP) and a range of inhibitors. Reactions are incubated for 30 min at 25° C. The addition of 20 uL of 8 mg/ml yitrium silicate SPA beads (Perkin Elmer) stops the reaction. The plates are sealed (TopSeal, Perkin Elmer) and the beads are allowed to settle for 8 hrs, after which they are read on the Trilux Microbeta overnight.

Human PDE4B1 = Human PDE4B1 (Homo sapiens (Human), UniProt Q07343, S133E/S654A/S659A/S661A); assay: PDE4B1 Scintillation Proximity Assay (SPA), inhibition of enzyme activity; conditions: read-out: Human PDE4B FL
Experimental: as §1
The recombinant Bacmid was isolated and used to transfect insect cells to generate a viral stock. To generate cell paste for purification, insect cells were infected with the virus stock and cells were harvested 72 hours after infection as described in Seeger, T. F. et al., Brain Research 985 (2003) 113-126. Insect cell paste was lysed and after centrifugation, the supernatant was chromatographed on Ni-NTA agarose (Qiagen) as described in Seeger, T. F. et al., Brain Research 985 (2003) 113-126. Ni-NTA agarose eluting fractions containing PDE4 were pooled, diluted with Q buffer A (20 mM Tris HCl pH 8, 5% glycerol, 1 mM TCEP) to reduce NaCl to ˜100 mM and loaded on a Source 15Q (GE Healthcare) column. After washing with Q buffer A/10% buffer B to baseline, PDE4D was eluted with a gradient from 10% to 60% of Buffer B (20 mM Tris HCl pH 8, 1 M NaCl, 5% glycerol, 1 mM TCEP). PDE4D fractions were analyzed by SDS-PAGE Coomassie blue staining, pooled based on purity, frozen and stored at −80° C.
as §2

Human PDE4A3 = Human PDE4A3 (Homo sapiens (Human), UniProt P27815); assay: PDE4A3 Scintillation Proximity Assay (SPA), inhibition of enzyme activity; conditions: Table 10, geometric mean of 2-9 determinations unless otherwise indicated, read-out: Human PDE4A FL
Experimental: as §1
The recombinant Bacmid was isolated and used to transfect insect cells to generate a viral stock. To generate cell paste for purification, insect cells were infected with the virus stock and cells were harvested 72 hours after infection. Insect cell paste was lysed and after centrifugation, the supernatant was batch bound to Ni-NTA agarose (GE Healthcare) and eluted with 250 mM imidazole. This eluate was diluted with FLAG buffer (50 mM Tris HCL pH 7.5, 100 mM NaCl, 5% Glycerol, 1 mM TCEP with protease inhibitors) and batch bound to ant-FLAG M2 agarose (Sigma) overnight at 4° C. The agarose was packed into a column, washed with buffer and eluted with buffer containing elute using 250 ug/ml Flag-peptide. Fractions were analyzed using SDS-PAGE Coomassie blue staining and pooled based on purity. Pooled fractions were chromatographed on a S200 120 ml column (GE Healthcare) in 50 mM Tris HCL pH 7.5, 150 mM NaCl, 10% Glycerol, 2 mM TCEP with protease inhibitors. PDE4A3 fractions were analyzed by SDS-PAGE Coomassie blue staining, pooled based on purity, dialyzed against 50 mM Tris HCL pH 7.5, 100 mM NaCl, 20% Glycerol, 2 mM TCEP, frozen and stored at −80° C.
as §2

[1] = Table 9, geometric mean of 2-9 determinations unless otherwise indicated
[2] = Table 10, geometric mean of 2-9 determinations unless otherwise indicated

Chain of human PDE4D3 (Q08499 186-808): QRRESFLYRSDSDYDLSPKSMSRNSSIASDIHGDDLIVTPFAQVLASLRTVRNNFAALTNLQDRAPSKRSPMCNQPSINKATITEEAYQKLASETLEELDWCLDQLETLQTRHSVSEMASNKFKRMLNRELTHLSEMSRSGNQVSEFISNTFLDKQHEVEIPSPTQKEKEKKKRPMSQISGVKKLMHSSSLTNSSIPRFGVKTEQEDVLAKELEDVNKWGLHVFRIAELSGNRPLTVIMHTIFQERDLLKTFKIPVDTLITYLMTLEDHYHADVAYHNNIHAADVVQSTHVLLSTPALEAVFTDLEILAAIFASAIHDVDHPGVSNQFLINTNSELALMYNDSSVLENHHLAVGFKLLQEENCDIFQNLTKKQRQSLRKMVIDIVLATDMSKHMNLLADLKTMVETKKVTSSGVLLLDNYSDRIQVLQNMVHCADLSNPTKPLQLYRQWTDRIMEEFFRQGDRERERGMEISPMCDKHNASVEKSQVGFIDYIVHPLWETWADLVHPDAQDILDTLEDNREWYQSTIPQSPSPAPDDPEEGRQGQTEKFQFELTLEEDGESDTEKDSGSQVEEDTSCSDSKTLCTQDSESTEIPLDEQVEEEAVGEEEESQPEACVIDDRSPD
Chain of Human PDE4B1 (Q07343 122-736 S133E/S654A/S659A/S661A): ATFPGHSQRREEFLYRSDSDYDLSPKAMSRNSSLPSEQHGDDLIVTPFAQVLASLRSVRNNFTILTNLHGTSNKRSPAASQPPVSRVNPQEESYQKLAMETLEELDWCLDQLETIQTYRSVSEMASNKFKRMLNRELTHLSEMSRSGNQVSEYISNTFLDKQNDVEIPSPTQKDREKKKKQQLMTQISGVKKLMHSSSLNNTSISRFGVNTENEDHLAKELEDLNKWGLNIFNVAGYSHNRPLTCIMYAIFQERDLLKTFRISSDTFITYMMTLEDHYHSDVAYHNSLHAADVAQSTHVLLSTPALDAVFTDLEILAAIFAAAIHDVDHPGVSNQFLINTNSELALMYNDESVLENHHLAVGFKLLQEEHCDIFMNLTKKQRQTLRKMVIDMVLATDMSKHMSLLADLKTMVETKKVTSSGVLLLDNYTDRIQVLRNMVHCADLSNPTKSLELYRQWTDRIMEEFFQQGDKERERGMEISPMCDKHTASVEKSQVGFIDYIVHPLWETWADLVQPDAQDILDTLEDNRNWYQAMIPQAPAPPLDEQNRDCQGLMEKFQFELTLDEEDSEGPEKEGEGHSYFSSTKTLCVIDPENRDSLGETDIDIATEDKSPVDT
Chain of Human PDE4A3 (P27815 other isoform, or with tags, fused parts or gaps): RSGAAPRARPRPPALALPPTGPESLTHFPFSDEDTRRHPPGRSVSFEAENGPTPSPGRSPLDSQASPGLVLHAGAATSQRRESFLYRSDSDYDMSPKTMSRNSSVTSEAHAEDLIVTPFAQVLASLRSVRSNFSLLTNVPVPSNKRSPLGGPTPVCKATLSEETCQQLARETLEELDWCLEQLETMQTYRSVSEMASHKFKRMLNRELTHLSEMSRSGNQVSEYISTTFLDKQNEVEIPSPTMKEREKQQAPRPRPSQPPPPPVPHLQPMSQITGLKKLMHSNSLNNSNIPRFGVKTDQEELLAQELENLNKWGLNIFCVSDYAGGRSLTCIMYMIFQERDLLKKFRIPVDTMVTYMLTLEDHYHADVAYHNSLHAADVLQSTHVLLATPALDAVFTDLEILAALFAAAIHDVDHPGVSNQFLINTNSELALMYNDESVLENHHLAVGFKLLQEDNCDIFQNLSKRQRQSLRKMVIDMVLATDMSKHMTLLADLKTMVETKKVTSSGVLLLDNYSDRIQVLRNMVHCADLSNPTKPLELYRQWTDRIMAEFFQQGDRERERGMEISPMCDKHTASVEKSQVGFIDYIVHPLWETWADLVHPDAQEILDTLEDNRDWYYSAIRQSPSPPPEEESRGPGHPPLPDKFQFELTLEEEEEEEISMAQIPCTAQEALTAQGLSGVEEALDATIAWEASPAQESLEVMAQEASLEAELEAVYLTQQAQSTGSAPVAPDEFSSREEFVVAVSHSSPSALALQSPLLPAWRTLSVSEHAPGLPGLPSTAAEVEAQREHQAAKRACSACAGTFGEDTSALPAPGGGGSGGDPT

Row | Compound | IC50 (human PDE4D3; [1]) [nM] | IC50 (Human PDE4B1; [1]) [nM] | IC50 (human PDE4D3; [2]) [nM] | IC50 (Human PDE4B1; [2]) [nM] | IC50 (Human PDE4A3) [µM]
1 | O=C1NCCn2c1c(-c1ccc(Cl)cc1)c1ncccc12 [Example 19, 10-(4-Chlorophenyl)-7,8-dihydropyrido[2′,3′:4,5]pyrrolo[1,2-a]pyrazin-9(6H)-one] | 1600 | 18.5 | – | – | –
2 | Cc1ccc(-c2c3n(c4nccnc24)CCN(C2CC2)C3=O)cn1 [Example 83, 8-Cyclopropyl-10-(6-methylpyridin-3-yl)-7,8-dihydropyrrolo[1,2-a:4,5-b′]dipyrazin-9(6H)-one] | – | – | > 29700 | 15400 | –
3 | O=c1c2c(-c3ccc(Cl)cc3)c3ncccc3n2ccn1-c1nnc[nH]1 [Example 6, 10-(4-Chlorophenyl)-8-(4H-1,2,4-triazol-3-yl)pyrido[2′,3′:4,5]pyrrolo[1,2-a]pyrazin-9(8H)-one] | 2670 | 8.32 | – | – | –
4 | CCN1CCn2c(c(-c3ccc(Cl)cc3)c3ncccc32)C1=O [Example 31, 10-(4-Chlorophenyl)-8-ethyl-7,8-dihydropyrido[2′,3′:4,5]pyrrolo[1,2-a]pyrazin-9(6H)-one] | 87.9 | 2.43 | – | – | –
5 | CN1CCn2c(c(-c3ccc(Cl)cc3)c3ncccc32)C1=O [Example 30, 10-(4-Chlorophenyl)-8-methyl-7,8-dihydropyrido[2′,3′:4,5]pyrrolo[1,2-a]pyrazin-9(6H)-one] | 803 | 27.9 | – | – | –
6 | O=C1c2c(-c3ccc(Cl)cc3)c3ncccc3n2CC2CCN12 (stereo not shown) [Example 67, 11-(4-Chlorophenyl)-6,6a,7,8-tetrahydro-10H-azeto[1,2-a]pyrido[2′,3′:4,5]pyrrolo[1,2-d]pyrazin-10-one] | 862 | 4.93 | – | – | –
7 | O=C1c2c(-c3ccc(Cl)cc3)c3ncccc3n2CCN1c1nnc[nH]1 [Example 5, 10-(4-Chlorophenyl)-8-(4H-1,2,4-triazol-3-yl)-7,8-dihydropyrido[2′,3′:4,5]pyrrolo[1,2-a]pyrazin-9(6H)-one] | 476 | 5.87 | – | – | –
8 | COc1ncc(-c2c3n(c4nccnc24)CCN(C2CC2)C3=O)cn1 [Example 87, 8-Cyclopropyl-10-(2-methoxypyrimidin-5-yl)-7,8-dihydropyrrolo[1,2-a:4,5-b′]dipyrazin-9(6H)-one] | – | – | > 28700 | 2640 | –
9 | O=C1c2c(-c3ccc(Cl)cc3)c3ncccc3n2C[C@@H]2CCCN12 [Example 52, (6aS)-12-(4-Chlorophenyl)-6a,7,8,9-tetrahydro-6H,11H-pyrido[2′,3′:4,5]pyrrolo[1,2-a]pyrrolo[1,2-d]pyrazin-11-one] | 1110 | 12.4 | – | – | –
10 | COc1ncc(-c2c3n(c4cncnc24)CCN(C2CC2)C3=O)cn1 [Example 89, 8-Cyclopropyl-10-(2-methoxypyrimidin-5-yl)-7,8-dihydropyrazino[1′,2′:1,5]pyrrolo[3,2-d]pyrimidin-9(6H)-one] | – | – | > 30000 | 2960 | –
11 | O=C1c2c(-c3ccc(Cl)cc3)c3ncccc3n2C[C@H]2CCCN12 [Example 3, (6aR)-12-(4-Chlorophenyl)-6a, 7,8,9-tetrahydro-6H,11H-pyrido[2′,3′:4,5]pyrrolo[1,2-a]pyrrolo[1,2-d]pyrazin-11-one, trifluoroacetate salt] | 150 | 1.38 | – | – | –
12 | O=C1c2c(-n3cccn3)c3ncccc3n2CCN1C1CC1 [Example 92, 8-Cyclopropyl-10-(1H-pyrazol-1-yl)-7,8-dihydropyrido[2′,3′:4,5]pyrrolo[1,2-a]pyrazin-9(6H)-one] | – | – | > 29900 | 15300 | –
13 | CCCN1CCn2c(c(-c3ccc(Cl)cc3)c3ncccc32)C1=O [Example 17, 10-(4-Chlorophenyl)-8-propyl-7,8-dihydropyrido[2′,3′:4,5]pyrrolo[1,2-a]pyrazin-9(6H)-one] | 81 | 1 | – | – | –
14 | CC(=O)N1CCn2c(c(-c3ccc(Cl)cc3)c3ncccc32)C1=O [Example 78, 8-Acetyl-10-(4-chlorophenyl)-7,8-dihydropyrido[2′,3′:4,5]pyrrolo[1,2-a]pyrazin-9(6H)-one] | – | – | 30.6 | 59.5 | –

Now from value to molecule:

Row | IC50 (human PDE4D3; [1]) [nM] | IC50 (Human PDE4B1; [1]) [nM] | IC50 (human PDE4D3; [2]) [nM] | IC50 (Human PDE4B1; [2]) [nM] | IC50 (Human PDE4A3) [µM] | Compound
15 | 1470 | 26.5 | – | – | – | N#Cc1ccc(-c2c3n(c4cccnc24)CCN(C2CC2)C3=O)cc1 [Example 43, 4-(8-Cyclopropyl-9-oxo-6,7,8,9-tetrahydropyrido[2′,3′:4,5]pyrrolo[1,2-a]pyrazin-10-yl)benzonitrile]
16 | 426 | 6.54 | – | – | – | COc1ccc(-c2c3n(c4cccnc24)CCN(C2CC2)C3=O)cn1 [Example 53, 8-Cyclopropyl-10-(6-methoxypyridin-3-yl)-7,8-dihydropyrido[2′,3′:4,5]pyrrolo[1,2-a]pyrazin-9(6H)-one]
17 | > 30000 | 332 | – | – | – | O=C1c2c(-c3ccc(F)cn3)c3ncccc3n2CCN1C1CC1 [Example 62, 8-Cyclopropyl-10-(5-fluoropyridin-2-yl)-7,8-dihydropyrido[2′,3′:4,5]pyrrolo[1,2-a]pyrazin-9(6H)-one]
18 | 1720 | 78.7 | – | – | – | O=C1c2c(-c3ccsc3)c3ncccc3n2CCN1C1CC1 [Example 39, 8-Cyclopropyl-10-(thiophen-3-yl)-7,8-dihydropyrido[2′,3′:4,5]pyrrolo[1,2-a]pyrazin-9(6H)-one]
19 | 442 | 6.87 | – | – | – | COc1cc(-c2c3n(c4cccnc24)CCN(C2CC2)C3=O)c(F)cc1Cl [Example 15, 10-(4-Chloro-2-fluoro-5-methoxyphenyl)-8-cyclopropyl-7,8-dihydropyrido[2′,3′: 4,5]pyrrolo[1,2-a]pyrazin-9(6H)-one]
20 | 253 | 5.52 | – | – | – | Cc1cc(Cl)ccc1-c1c2n(c3cccnc13)CCN(C1CC1)C2=O [Example 56, 10-(4-Chloro-2-methylphenyl)-8-cyclopropyl-7,8-dihydropyrido[2′,3′:4,5]pyrrolo[1,2-a]pyrazin-9(6H)-one]
21 | – | – | > 30000 | > 30000 | > 30 | Cn1nc(-c2c3n(c4cccnc24)CCN(C2CC2)C3=O)nc1C(F)F [Example 90, 8-Cyclopropyl-10-(5-(difluoromethyl)-1-methyl-1H-1,2,4-triazol-3-yl)-7,8-dihydropyrido[2′,3′:4,5]pyrrolo[1,2-a]pyrazin-9(6H)-one]
